From PMC7044277 (Nature Communications, 2020)
“And” between values parts separate entries of the source, which are not always exact repeats. Equal values may be shown once.

Assays:
[1] = molecular target: DRD2 (D2 long receptor) wild-type (Homo sapiens, UniProt P14416); test: Radioligand competition binding, [3H]-N-methylspiperone, HEK293T membranes; details: DRD2; [3H]-methylspiperone (0.8-1.0 nM); read-out: Ki
DRD3 wild-type = DRD3 wild-type (Homo sapiens, UniProt P35462); test: Radioligand competition binding, [3H]-N-methylspiperone; details: DRD3 wild-type; read-out: pKi ± SEM (converted)
Chain of DRD3 wild-type (P35462 whole entry): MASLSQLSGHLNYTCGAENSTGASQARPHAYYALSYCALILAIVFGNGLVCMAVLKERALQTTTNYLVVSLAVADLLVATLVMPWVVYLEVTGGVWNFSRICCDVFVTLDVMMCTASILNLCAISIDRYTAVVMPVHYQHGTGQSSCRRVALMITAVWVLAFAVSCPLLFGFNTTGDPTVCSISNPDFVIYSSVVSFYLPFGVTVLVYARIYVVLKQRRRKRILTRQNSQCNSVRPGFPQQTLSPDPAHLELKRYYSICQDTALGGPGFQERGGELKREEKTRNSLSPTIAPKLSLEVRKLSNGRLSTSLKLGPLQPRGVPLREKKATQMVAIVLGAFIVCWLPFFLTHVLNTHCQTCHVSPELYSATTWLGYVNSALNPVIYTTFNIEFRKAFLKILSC

[2] = molecular target: T1, DRD4 (D4.4 variant) wild-type (Homo sapiens, UniProt P21917); test: as above; details: DRD4; [3H]-methylspiperone (0.8-1.0 nM); read-out: Ki
T1 sequence (P21917 1-419): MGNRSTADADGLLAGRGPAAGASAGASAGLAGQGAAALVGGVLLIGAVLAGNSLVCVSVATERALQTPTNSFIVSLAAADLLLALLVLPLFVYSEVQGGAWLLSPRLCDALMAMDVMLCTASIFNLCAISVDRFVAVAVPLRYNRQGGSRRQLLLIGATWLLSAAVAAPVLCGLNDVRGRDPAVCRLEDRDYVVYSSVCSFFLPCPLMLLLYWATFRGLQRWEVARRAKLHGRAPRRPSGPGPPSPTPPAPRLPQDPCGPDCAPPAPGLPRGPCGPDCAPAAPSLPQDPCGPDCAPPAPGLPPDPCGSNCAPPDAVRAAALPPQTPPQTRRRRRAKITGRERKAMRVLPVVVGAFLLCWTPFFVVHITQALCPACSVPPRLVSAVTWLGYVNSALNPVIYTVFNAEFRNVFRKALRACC

DRD3 F1063.28A = DRD3 F1063.28A (Homo sapiens, UniProt P35462, F106A); test: biochemical; assay type: binding
Chain of DRD3 F1063.28A (P35462 whole entry F106A): as the sequence (P35462 whole entry) above, with F106A counted along it

DRD4 (D4.4 variant) = molecular target: T2, DRD4 (D4.4 variant) (Homo sapiens, UniProt P21917); test: β-arrestin2 recruitment (Tango); assay type: cell-based; details: DRD4; Tango; read-out: EC50 ± SEM
T2 sequence (P21917 1-419): T1 sequence (P21917 1-419)

DRD2 F1103.28L = molecular target: T3, DRD2 F1103.28L (Homo sapiens, UniProt P14416, F110L); test: β-arrestin2 recruitment (Tango), mutant; assay type: cell-based
T3 construct: expressed in transfected cells; host or cells: HEK293T (ATCC CRL-11268)
T3 sequence (P14416 whole entry F110L): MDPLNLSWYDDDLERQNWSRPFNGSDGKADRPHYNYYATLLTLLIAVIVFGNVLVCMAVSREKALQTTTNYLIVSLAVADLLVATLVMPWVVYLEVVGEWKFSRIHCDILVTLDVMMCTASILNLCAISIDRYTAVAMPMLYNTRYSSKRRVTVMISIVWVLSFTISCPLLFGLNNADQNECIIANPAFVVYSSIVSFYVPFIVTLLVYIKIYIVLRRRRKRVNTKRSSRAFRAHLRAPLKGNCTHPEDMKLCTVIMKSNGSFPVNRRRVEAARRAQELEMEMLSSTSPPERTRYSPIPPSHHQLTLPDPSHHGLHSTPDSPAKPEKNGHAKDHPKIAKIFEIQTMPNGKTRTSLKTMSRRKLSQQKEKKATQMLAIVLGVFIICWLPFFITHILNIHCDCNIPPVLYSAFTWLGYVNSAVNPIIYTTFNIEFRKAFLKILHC

Chain of DRD2 (D2 long receptor) wild-type (P14416 whole entry): as the sequence (P14416 whole entry F110L) above, with L110F counted along it

## CCOc1cccc2cc(C(C)NCC3(O)CCCCC3)oc12 (centres unmarked) [O4LE6]
[1]
  Ki: 1.91 µM and 1.9 µM
DRD3 wild-type
  Ki: 0.224 µM
[2]
  Ki: > 10 µM
DRD3 F1063.28A
  Ki: 0.46 µM
DRD3 F1063.28A; DRD3 Phe106^3.28Ala vs wild-type DRD3
  affinity decreased, mutant vs wild type: 2.09 fold
DRD4 (D4.4 variant)
  EC50: > 10 µM
DRD2 F1103.28L
  EC50: 0.204 µM
DRD2 F1103.28L; read-out: Emax relative to quinpirole response
  Emax: 4.32%
